Source: patent US20230234943A1, “TREX1 INHIBITORS AND USES THEREOF” (Tempest Therapeutics, Inc., priority 2020, published 2023)

Biological target: T1, Human TREX1 enzyme (amino acids 1-242) (Homo sapiens, UniProt Q9NSU2)
T1 construct: Human TREX1 enzyme (amino acids 1-242)
T1 sequence (Q9NSU2 1-242): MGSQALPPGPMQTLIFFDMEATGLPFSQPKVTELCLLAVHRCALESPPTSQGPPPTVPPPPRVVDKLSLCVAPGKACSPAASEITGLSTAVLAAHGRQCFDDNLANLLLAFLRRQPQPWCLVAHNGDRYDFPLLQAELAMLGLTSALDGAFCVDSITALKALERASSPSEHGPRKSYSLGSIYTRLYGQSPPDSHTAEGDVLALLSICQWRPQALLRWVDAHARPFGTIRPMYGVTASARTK
Experiment: Human TREX1 enzymatic assay with dsDNA native oligonucleotide (Picogreen fluorescence)
Type: biochemical
Conditions: 2 mM dithiothreitol in assay buffer; 50 nM dsDNA oligonucleotide; 30 min preincubation at 25° C.; read-out: TREX1/Human + DTT IC50 AVG
In short: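 TREX1 (0.8–0.16 nM final) preincubated with compound (300 μM–13 nM or 30 μM–1.5 nM, 2% DMSO) 30 min at 25 °C in Tris pH 7.7, 5 mM MgCl2, 2 mM DTT. Annealed dsDNA (50 nM) added for 5–15 min at 25 °C; EDTA quench with Picogreen fluorescence readout.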

SMILES | IC50
COc1cc(-c2nc3ccccc3n2C2(C)COC2)c(C#N)c(O)c1O [Example 216, 2,3-dihydroxy-4-methoxy-6-[1-(3-methyloxetan-3-yl)-1H-1,3-benzodiazol-2-yl]benzonitrile] | 10 to 100 µM
COc1cc(-c2nc3ccccc3n2C2(C)COC2)c(OC(F)F)c(O)c1O [Example 217, 3-(difluoromethoxy)-6-methoxy-4-(1-(3-methyloxetan-3-yl)-1H-benzo[d]imidazol-2-yl)benzene-1,2-diol] | 10 to 100 µM
COc1cc(-c2nc3cc(N4CCC4)ccc3n2C)c(C(F)(F)F)c(O)c1O [Example 221, 4-(5-(azetidin-1-yl)-1-methyl-1H-benzo[d]imidazol-2-yl)-6-methoxy-3-(trifluoromethyl)benzene-1,2-diol] | 1 to 10 µM
COc1cc(-c2nc3ccccc3n2C2(C)CCC2)c(C)c(O)c1O [Example 225, 6-methoxy-3-methyl-4-(1-(1-methylcyclobutyl)-1H-benzo[d]imidazol-2-yl)benzene-1,2-diol] | 1 to 10 µM
COc1cc(-c2nc3ccccc3n2C(C)C)c(C)c(O)c1O [Example 226, 4-(1-isopropyl-1H-benzo[d]imidazol-2-yl)-6-methoxy-3-methylbenzene-1,2-diol] | 1 to 10 µM
COc1cc(-c2nc3ccc(S(=O)(=O)N(C)C)cc3n2C2(C)COC2)c(F)c(O)c1O [Example 228, 2-(2-fluoro-3,4-dihydroxy-5-methoxyphenyl)-N,N-dimethyl-1-(3-methyloxetan-3-yl)-1H-benzo[d]imidazole-6-sulfonamide] | 10 to 100 µM
COc1cc(-c2nc3cnccc3n2C2(C)COC2)c(F)c(O)c1O [Example 229, 3-fluoro-6-methoxy-4-(1-(3-methyloxetan-3-yl)-1H-imidazo[4,5-c]pyridin-2-yl)benzene-1,2-diol] | 1 to 10 µM
COc1cc(-c2nc3cc(F)ccc3[nH]2)c(F)c(O)c1O [Example 231, 3-fluoro-4-(5-fluoro-1H-benzo[d]imidazol-2-yl)-6-methoxybenzene-1,2-diol] | > 100 µM
COc1cc(-c2nc3ccccc3n2C2(C)COC2)c(F)c(O)c1O [Example 232, 3-fluoro-6-methoxy-4-(1-(3-methyloxetan-3-yl)-1H-benzo[d]imidazol-2-yl)benzene-1,2-diol] | 0.1 to 1 µM
Oc1cc(-c2nc3ccccc3n2C2CCC2)cc(OC(F)(F)F)c1O [Example 233, 5-(1-cyclobutyl-1H-benzo[d]imidazol-2-yl)-3-(trifluoromethoxy)benzene-1,2-diol] | > 100 µM
CCOc1cc(-c2nc3ccccc3n2C2CCC2)cc(O)c1O [Example 234, 5-(1-cyclobutyl-1H-1,3-benzodiazol-2-yl)-3-ethoxybenzene-1,2-diol] | 1 to 10 µM
COc1cc(-c2nc3cc(N)ccc3n2C2CCC2)c(C)c(O)c1O [Example 235, 4-(5-amino-1-cyclobutyl-1H-benzo[d]imidazol-2-yl)-6-methoxy-3-methylbenzene-1,2-diol] | 0.1 to 1 µM
COc1cc(-c2nc3ccc(CNc4ccccc4)cc3n2C2(C)COC2)c(F)c(O)c1O [Example 236, 3-fluoro-6-methoxy-4-(1-(3-methyloxetan-3-yl)-6-((phenylamino)methyl)-1H-benzo[d]imidazol-2-yl)benzene-1,2-diol] | 0.1 to 1 µM
COc1cc(-c2nc3ccccc3n2CC2CCC2)c(C)c(O)c1O [Example 239, 4-(1-(cyclobutylmethyl)-1H-benzo[d]imidazol-2-yl)-6-methoxy-3-methylbenzene-1,2-diol] | > 100 µM
COc1cc(-c2nc3cc(N4CCC4)ccc3[nH]2)c(C2CC2)c(O)c1O [Example 242, 4-(5-(azetidin-1-yl)-1H-benzo[d]imidazol-2-yl)-3-cyclopropyl-6-methoxybenzene-1,2-diol] | > 100 µM
COc1cc(-c2nc3ccc(C(=O)NC(C)(C)C)cc3n2C2(C)COC2)c(F)c(O)c1O [Example 243, N-tert-butyl-2-(2-fluoro-3,4-dihydroxy-5-methoxyphenyl)-1-(3-methyloxetan-3-yl)-1H-1,3-benzodiazole-6-carboxamide] | 0.1 to 1 µM
COc1cc(-c2nc3ccc(C(=O)N(C)C)cc3n2C2(C)COC2)c(F)c(O)c1O [Example 245, 2-(2-fluoro-3,4-dihydroxy-5-methoxyphenyl)-N,N-dimethyl-1-(3-methyloxetan-3-yl)-1H-benzo[d]imidazole-6-carboxamide] | 1 to 10 µM

The remaining lines, values ahead:

IC50 | SMILES
0.1 to 1 µM | COc1cc(-c2nc3cccc(NC(C)=O)c3n2C2(C)COC2)c(F)c(O)c1O [Example 210, N-[2-(2-fluoro-3,4-dihydroxy-5-methoxyphenyl)-1-(3-methyloxetan-3-yl)-1H-1,3-benzodiazol-7-yl]acetamide]
≤ 0.1 µM | COC(=O)c1ccc2nc(-c3cc(OC)c(O)c(O)c3F)n(C3(C)COC3)c2c1 [Example 211, methyl 2-(2-fluoro-3,4-dihydroxy-5-methoxyphenyl)-1-(3-methyloxetan-3-yl)-1H-benzo[d]imidazole-6-carboxylate]
≤ 0.1 µM | CNC(=O)c1ccc2nc(-c3cc(OC)c(O)c(O)c3F)n(C3(C)COC3)c2c1 [Example 212, 2-(2-fluoro-3,4-dihydroxy-5-methoxyphenyl)-N-methyl-1-(3-methyloxetan-3-yl)-1H-benzo[d]imidazole-6-carboxamide]
≤ 0.1 µM | CNC(=O)c1ccc2nc(-c3cc(OC)c(O)c(O)c3C)n(C3(C)COC3)c2c1 [Example 213, 2-(3,4-dihydroxy-5-methoxy-2-methylphenyl)-N-methyl-1-(3-methyloxetan-3-yl)-1H-1,3-benzodiazole-6-carboxamide]
0.1 to 1 µM | CNC(=O)c1cccc2c1nc(-c1cc(OC)c(O)c(O)c1F)n2C1(C)COC1 [Example 214, 2-(2-fluoro-3,4-dihydroxy-5-methoxyphenyl)-N-methyl-1-(3-methyloxetan-3-yl)-1H-1,3-benzodiazole-4-carboxamide]
≤ 0.1 µM | CCCC(=O)Nc1ccc2c(c1)nc(-c1cc(OC)c(O)c(O)c1F)n2C1(C)COC1 [Example 215, N-(2-(2-fluoro-3,4-dihydroxy-5-methoxyphenyl)-1-(3-methyloxetan-3-yl)-1H-benzo[d]imidazol-5-yl)butyramide]
≤ 0.1 µM | CCc1cc2nc(-c3cc(OC)c(O)c(O)c3F)n(C3(C)COC3)c2cn1 [Example 218, 4-[6-ethyl-3-(3-methyloxetan-3-yl)-3H-imidazo[4,5-c]pyridin-2-yl]-3-fluoro-6-methoxybenzene-1,2-diol]
0.1 to 1 µM | COc1cc(-c2nc3cc(C(N)=O)ncc3n2C2(C)COC2)c(F)c(O)c1O [Example 219, 2-(2-fluoro-3,4-dihydroxy-5-methoxyphenyl)-3-(3-methyloxetan-3-yl)-3H-imidazo[4,5-c]pyridine-6-carboxamide]
0.1 to 1 µM | COc1cc(-c2cc3ccccc3n2C2(C)COC2)c(C)c(O)c1O [Example 220]
≤ 0.1 µM | COc1cc(-c2nc3cc(NCc4ccccc4)ccc3n2C2(C)COC2)c(F)c(O)c1O [Example 222, 4-(5-(benzylamino)-1-(3-methyloxetan-3-yl)-1H-benzo[d]imidazol-2-yl)-3-fluoro-6-methoxybenzene-1,2-diol]
0.1 to 1 µM | CCNc1ccc2c(c1)nc(-c1cc(OC)c(O)c(O)c1F)n2C1(C)COC1 [Example 223, 4-(5-(ethylamino)-1-(3-methyloxetan-3-yl)-1H-benzo[d]imidazol-2-yl)-3-fluoro-6-methoxybenzene-1,2-diol]
≤ 0.1 µM | COc1cc(-c2nc3cc(NC(=O)CCO)ccc3n2C2(C)COC2)c(F)c(O)c1O [Example 224, N-(2-(2-fluoro-3,4-dihydroxy-5-methoxyphenyl)-1-(3-methyloxetan-3-yl)-1H-benzo[d]imidazol-5-yl)-3-hydroxypropanamide]
0.1 to 1 µM | COc1cc(-c2nc3ccccc3n2C(C)(C)C)c(C)c(O)c1O [Example 227, 4-(1-(tert-butyl)-1H-benzo[d]imidazol-2-yl)-6-methoxy-3-methylbenzene-1,2-diol]
0.1 to 1 µM | COc1cc(-c2nc3ccncc3n2C2(C)COC2)c(F)c(O)c1O [Example 230, 3-fluoro-6-methoxy-4-[3(3-methyloxetan-3-yl)-3H-imidazo[4,5-c]pyridin-2-yl]benzene-1,2-diol]
≤ 0.1 µM | COc1cc(-c2nc3cc(NC(C)=O)ncc3n2C2(C)COC2)c(F)c(O)c1O [Example 237, N-(2-(2-fluoro-3,4-dihydroxy-5-methoxyphenyl)-3-(3-methyloxetan-3-yl)-3H-imidazo[4,5-c]pyridin-6-yl)acetamide]
≤ 0.1 µM | COc1cc(-c2nc3ccc(-c4nnco4)cc3n2C2(C)COC2)c(F)c(O)c1O [Example 238, 3-fluoro-6-methoxy-4-[1-(3-methyloxetan-3-yl)-6-(1,3,4-oxadiazol-2-yl)-1H-1,3-benzodiazol-2-yl] benzene-1,2-diol]
≤ 0.1 µM | COc1cc(-c2nc3ccc(C(=O)NCC(F)(F)F)cc3n2C2(C)COC2)c(F)c(O)c1O [Example 244, 2-(2-fluoro-3,4-dihydroxy-5-methoxyphenyl)-1-(3-methyloxetan-3-yl)-N-(2,2,2-trifluoroethyl)-1H-1,3-benzodiazole-6-carboxamide]
≤ 0.1 µM | COc1cc(-c2nc3ccc(C(=O)Nc4ccccc4)cc3n2C2(C)COC2)c(F)c(O)c1O [Example 246, 2-(2-fluoro-3,4-dihydroxy-5-methoxyphenyl)-1-(3-methyloxetan-3-yl)-N-phenyl-1H-benzo[d]imidazole-6-carboxamide]
